The text below walks through data of the supplement of paper PMC10307832.

Common to all, as to experiment: relative viability (nuclei count vs DMSO), 5 days (fraction); higher = more cells survive
Compound in the assay “TGX 221 + Navitoclax”: CC1=CN2C(=O)C=C(N=C2C(=C1)C(C)NC3=CC=CC=C3)N4CCOCC4 [TGX 221] + CC1(C)CCC(c2ccc(Cl)cc2)=C(CN2CCN(c3ccc(C(=O)NS(=O)(=O)c4ccc(N[C@H](CCN5CCOCC5)CSc5ccccc5)c(S(=O)(=O)C(F)(F)F)c4)cc3)CC2)C1 [Navitoclax] (partner 0.5 µM)
A digest of the protocol: (§1)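 The day after seeding in 1536-well plates, lung cancer cell lines were treated by pin tool with a single drug, or with a fixed anchor-drug dose together with five library-drug doses (not always all listed) in √10 steps. After 5 days, a combined fix-and-stain solution (final 0.05% Triton X-100, 1% formaldehyde, 1 ug/ml Hoechst) was added. Nuclei counted on 4× images gave relative viability as treated counts over vehicle counts, reported as the median of duplicate plates.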

Compound in assay [1]: O=C(CCCCCCNC(=O)c1cnc(N(c2ccccc2)c2ccccc2)nc1)NO [Ricolinostat] + CC(=O)c1c(C)c2cnc(Nc3ccc(N4CCNCC4)cn3)nc2n(C2CCCC2)c1=O [Palbociclib] (partner 0.5 µM)
In outline: as §1

Compound in assay [2]: O=C(CCCCCCNC(=O)c1cnc(N(c2ccccc2)c2ccccc2)nc1)NO [Ricolinostat] + CCNC(=O)c1noc(-c2cc(C(C)C)c(O)cc2O)c1-c1ccc(CN2CCOCC2)cc1 [Luminespib] (partner 0.01 µM)
A digest of the protocol:
as §1

Compound in the assay “Ricolinostat + Lapatinib”: O=C(CCCCCCNC(=O)c1cnc(N(c2ccccc2)c2ccccc2)nc1)NO [Ricolinostat] + CS(=O)(=O)CCNCc1ccc(-c2ccc3ncnc(Nc4ccc(OCc5cccc(F)c5)c(Cl)c4)c3c2)o1 [Lapatinib] (partner 2 µM)
In outline: as §1

For SW 1573, the relative viability with TGX 221 + Navitoclax (first compound 0.08 µM) came to 0.814; with TGX 221 + Navitoclax (first compound 0.253 µM), 0.811; with TGX 221 + Navitoclax (first compound 0.8 µM), 0.926; with TGX 221 + Navitoclax (first compound 2.53 µM) it was 0.821; with TGX 221 + Navitoclax (first compound 8 µM), 0.753; in assay [1] (first compound 0.08 µM) it was 0.387. The relative viability in assay [1] (first compound 0.253 µM) was found to be 0.434; in assay [1] (first compound 0.8 µM), 0.337; in assay [1] (first compound 2.53 µM) it was 0.357; in assay [2] (first compound 0.08 µM), 0.389; in assay [2] (first compound 0.253 µM) it was 0.214; in assay [2] (first compound 0.8 µM), 0.144. Moreover, the relative viability in assay [2] (first compound 2.53 µM) was 0.154; in the assay with Ricolinostat + Lapatinib (first compound 0.08 µM) it was 0.941; with Ricolinostat + Lapatinib (first compound 0.253 µM) it was 1.23; with Ricolinostat + Lapatinib (first compound 0.8 µM) it was 1.12; with Ricolinostat + Lapatinib (first compound 2.53 µM) it was 1.
In the case of NCI-H1703, the relative viability in the assay with TGX 221 + Navitoclax (first compound 0.08 µM) amounted to 1.05; with TGX 221 + Navitoclax (first compound 0.253 µM), 0.822; with TGX 221 + Navitoclax (first compound 0.8 µM) it was 0.969; with TGX 221 + Navitoclax (first compound 2.53 µM), 0.97; in the assay with TGX 221 + Navitoclax (first compound 8 µM), 0.633; with Ricolinostat + Lapatinib (first compound 0.08 µM), 1.03. For the same cell line, the relative viability in the assay with Ricolinostat + Lapatinib (first compound 0.253 µM) came out at 0.928; with Ricolinostat + Lapatinib (first compound 0.8 µM) it was 1.06; with Ricolinostat + Lapatinib (first compound 2.53 µM), 1.07.
Turning to NCI-H522, the relative viability in assay [1] (first compound 0.08 µM) was 1.14; in assay [1] (first compound 0.253 µM), 1.18; in assay [1] (first compound 0.8 µM), 1.08; in assay [1] (first compound 2.53 µM) it was 1.21; in assay [2] (first compound 0.08 µM), 1.39; in assay [2] (first compound 0.253 µM), 1.01. For the same cell line, the relative viability came out at 1.28 in assay [2] (first compound 0.8 µM) and 1.19 in assay [2] (first compound 2.53 µM).
Take NCI-H596: the relative viability with TGX 221 + Navitoclax (first compound 0.08 µM) stood at 0.996; in the assay with TGX 221 + Navitoclax (first compound 0.253 µM), 0.863; in the assay with TGX 221 + Navitoclax (first compound 0.8 µM) it was 0.969; with TGX 221 + Navitoclax (first compound 2.53 µM) it was 0.902; in the assay with TGX 221 + Navitoclax (first compound 8 µM), 0.886; in assay [2] (first compound 0.08 µM), 1.12. The relative viability came out at 0.83 in assay [2] (first compound 0.253 µM); 0.881 in assay [2] (first compound 0.8 µM); 1.1 in assay [2] (first compound 2.53 µM); 0.985 with Ricolinostat + Lapatinib (first compound 0.08 µM); 1.08 in the assay with Ricolinostat + Lapatinib (first compound 0.253 µM); 1 with Ricolinostat + Lapatinib (first compound 0.8 µM). For the same cell line, the relative viability in the assay with Ricolinostat + Lapatinib (first compound 2.53 µM) came to 0.743.
On to NCI-H650, for which the relative viability amounted to 0.33 in assay [1] (first compound 0.08 µM); 0.356 in assay [1] (first compound 0.253 µM); 0.32 in assay [1] (first compound 0.8 µM); 0.253 in assay [1] (first compound 2.53 µM); 0.763 in assay [2] (first compound 0.08 µM); 0.758 in assay [2] (first compound 0.253 µM). For the same cell line, the relative viability came to 0.788 in assay [2] (first compound 0.8 µM); 0.657 in assay [2] (first compound 2.53 µM); 0.888 with Ricolinostat + Lapatinib (first compound 0.253 µM); 0.734 with Ricolinostat + Lapatinib (first compound 0.8 µM); 0.504 with Ricolinostat + Lapatinib (first compound 2.53 µM).
Regarding NCI-H1623, the relative viability in assay [2] (first compound 0.08 µM) amounted to 0.481; in assay [2] (first compound 0.253 µM), 0.517; in assay [2] (first compound 0.8 µM) it was 0.541; in assay [2] (first compound 2.53 µM) it was 0.523.
In the case of ABC-1, the relative viability in assay [1] (first compound 0.08 µM) was found to be 0.585; in assay [1] (first compound 0.253 µM), 0.631; in assay [1] (first compound 0.8 µM), 0.8; in assay [1] (first compound 2.53 µM) it was 0.612; in assay [2] (first compound 0.08 µM) it was 0.537; in assay [2] (first compound 0.253 µM) it was 0.761. Further, the relative viability in assay [2] (first compound 0.8 µM) amounted to 0.527; in assay [2] (first compound 2.53 µM), 0.261; in the assay with Ricolinostat + Lapatinib (first compound 0.08 µM) it was 1.27; with Ricolinostat + Lapatinib (first compound 0.253 µM), 1.12; with Ricolinostat + Lapatinib (first compound 0.8 µM), 1.3; in the assay with Ricolinostat + Lapatinib (first compound 2.53 µM) it was 1.65.
